Source: publication PMC7932537, “Quantitative profiling of protease specificity” (PLoS Computational Biology, 2021)

tested on: MMP-2; test: Substrate phage display with NGS: relative probability (RP) of P3-P1' tetramer clusters; format: biochemical, human; conditions: MMP2 - no binning; average relative probability (RP) of the P3-P1' tetramer; redundant tetramers have been averaged out;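 for relative probability (RP): ratio of tetramer probability after protease selection to that in naive phage library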

| Substance | avg_RP |
| --- | --- |
| ALAM | 20.8553 |
| PLDM | 20.8822 |
| ANMI | 1.6014 |
| VYRL | 5.0832 |
| YMHI | 0 |
| MALL | 16.9256 |
| ALGL | 26.3282 |
| SARL | 4.5839 |
| VNRI | 0 |
| VFRL | 1.3631 |
| IRHL | 22.5548 |
| NARL | 12.6743 |
| HQSL | 10.5998 |
| VGVL | 7.4169 |
| GWDL | 0 |
| PERL | 16.3826 |
| PYFL | 19.1471 |
| AQHL | 16.6778 |
| VHAL | 19.753 |
| SGAY | 6.7841 |
| PGSM | 25.6264 |
| SQHL | 0.2367 |

| Substance | avg_RP |
| --- | --- |
| VRHI | 19.1429 |
| ALWL | 7.2418 |
| NLPL | 4.8994 |
| YAWM | 14.9473 |
| LARL | 21.3172 |
| WASM | 16.5169 |
| PLSI | 32.2576 |
| VAFL | 20.6554 |
| MFSL | 0.2905 |
| GWRL | 0.1031 |
| VRFM | 15.2846 |
| MLGL | 16.6463 |
| MHEL | 0.0484 |
| NLAL | 5.8865 |
| AHPL | 24.4555 |
| AWAL | 14.3616 |
| VGHL | 31.6783 |
| IWAL | 5.7953 |
| VLPL | 20.3086 |
| ILHL | 15.3505 |
| PLSW | 31.2944 |
| ASRL | 6.8948 |

| Substance | avg_RP |
| --- | --- |
| YLNY | 1.6791 |
| VAWL | 32.2185 |
| AFTM | 0 |
| HMAL | 5.2214 |
| LAQI | 17.7137 |
| TWSM | 0 |
| AFHI | 0.4414 |
| VHML | 3.9806 |
| MQRL | 9.3428 |
| PAHL | 34.5554 |
| SYPL | 1.464 |
| GFAL | 0.4341 |
| ALDL | 2.4602 |
| AWHL | 5.5662 |
| VNFL | 7.2989 |
| SAYL | 11.6614 |
| FQWL | 13.3419 |
| ALNM | 13.7479 |
| AQEL | 0.1876 |
| AWMM | 1.3213 |

same assay, conditions: MMP2 - no binning; average relative probability of the P3-P1' tetramer; redundant tetramers have been averaged out

| Substance | avg_RP |
| --- | --- |
| FQSL | 13.5551 |
| AMNL | 16.2852 |
| AYHM | 3.7603 |
| VMLL | 0.4692 |
| AQYL | 7.443 |
| SQSL | 5.003 |
| FLHW | 0.0579 |
| YASM | 24.1553 |
| PTSL | 28.926 |
| ASNL | 28.7368 |
| VFHM | 5.168 |
| FLHM | 0.2069 |
| TWAL | 0.4366 |
| SGQL | 1.0305 |
| ASFL | 10.8605 |
| AHLL | 1.4368 |
| PFFL | 12.8224 |
| FAAL | 18.8584 |
| PYML | 24.9477 |
| VMLM | 0.5571 |
| MLSM | 5.2342 |
| VYDL | 1.2439 |
| PMQL | 27.6586 |

| Substance | avg_RP |
| --- | --- |
| VQLL | 8.0197 |
| PLNW | 28.8158 |
| AQPL | 14.4283 |
| LHSL | 18.7402 |
| SAWL | 18.9346 |
| LQKL | 13.1993 |
| MFHL | 0.052 |
| IWKL | 0.0593 |
| PSWL | 35.705 |
| IYEL | 0.2382 |
| VYML | 5.0943 |
| LRWW | 6.3129 |
| FRGL | 7.4752 |
| VMSL | 14.6983 |
| PSSL | 35.4913 |
| ALNL | 17.2813 |
| LWKL | 0 |
| PEWM | 12.3271 |
| VSYL | 20.2936 |
| MLSL | 2.2282 |
| LSNL | 32.5007 |
| FSHM | 11.0227 |
| HMRL | 0.0574 |

| Substance | avg_RP |
| --- | --- |
| AQML | 8.608 |
| LLNM | 13.7728 |
| TQHL | 2.9223 |
| LAAM [P3-P1' tetramer cluster] | 30.6825 |
| LASL [P3-P1' tetramer cluster] | 31.1996 |
| LNYL | 12.3459 |
| AMRM | 0.1716 |
| PRWM | 32.3694 |
| IHFL | 4.5373 |
| PHLL | 16.4802 |
| IESM | 2.7483 |
| LRQM | 8.6765 |
| PSGM | 32.7604 |
| ANYL | 3.9008 |
| VMRM | 0.0611 |
| PVQL | 26.094 |
| PGWL | 33.1284 |
| VWYL | 3.6672 |
| WLNL | 0.1218 |
| SFNL | 1.0952 |
| PRYW | 20.9965 |
| VNSL | 13.3292 |
| LLDL | 0.3542 |

| Substance | avg_RP |
| --- | --- |
| SFAL | 0.5631 |
| ASAL | 28.9092 |
| GANL | 13.1428 |
| PIPL | 33.1236 |
| QLAM | 5.2406 |
| VWGI | 3.0103 |
| PNYI | 6.6891 |
| VLAL | 13.5229 |
| LASQ | 21.0724 |
| YFNL | 0 |
| MLAL | 5.6722 |
| PFYM | 8.1842 |
| PFYL | 17.7778 |
| ISHL | 30.7015 |
| MWHL | 0.2013 |
| SGPL | 2.1571 |
| PSML | 33.0235 |
| ISYM | 22.3091 |
| IYAL | 6.9669 |
| VNNL | 17.6966 |
| PIML | 15.4441 |
| GQHL | 1.1642 |

same assay, conditions: MMP2 - no binning; average relative probability of the tetramer; redundant tetramers averaged out

| Substance | avg_RP |
| --- | --- |
| MAHL [P3-P1' tetramer cluster] | 29.5006 |
| ARKL | 0 |
| FAHL | 19.6504 |
| VFEL | 0.8652 |
| LRNL | 27.1336 |
| PYSW | 16.4352 |
| VYWL | 16.4375 |
| AYNF | 6.7246 |
| PSWS | 13.1501 |
| VRGM | 26.4376 |
| PKLL | 15.3454 |
| MESL | 8.7752 |
| PQMI | 16.6558 |
| PFLL | 9.0855 |
| VRHV | 9.5401 |
| VNHL | 12.8499 |
| PFSN | 0.4602 |
| SRAL | 12.4506 |
| VAKM | 17.3627 |
| VRDL | 21.7219 |
| VRAH | 14.8064 |
| PEWY | 14.0361 |
| WRAF | 9.8395 |
| ALPL | 22.1772 |
| VRSI | 11.7832 |

| Substance | avg_RP |
| --- | --- |
| PYHL | 27.2418 |
| VYGL | 17.3788 |
| PRLY | 15.7594 |
| PSTL | 30.1803 |
| PRSW | 32.796 |
| PMDY | 10.9087 |
| PLQI | 21.9897 |
| VHHL | 14.1228 |
| PGLL | 24.9611 |
| VWNY | 4.6964 |
| VSFL | 5.9184 |
| TRWY | 6.7229 |
| GSHL | 4.2785 |
| WMNL | 0 |
| WHGL | 0.5588 |
| LLSL | 2.0177 |
| IWSL | 5.404 |
| PLMY | 17.2027 |
| VNWM | 16.277 |
| VVWY | 9.9375 |
| PRGN | 16.6168 |
| PYPL | 30.8058 |
| INAL | 12.2423 |
| WRGL | 23.375 |
| WSWL | 7.8776 |

| Substance | avg_RP |
| --- | --- |
| PVAM | 31.7171 |
| ANSL | 10.0738 |
| AVAI | 20.993 |
| VRAI | 26.2338 |
| WRAY | 17.4833 |
| VRMM | 13.0027 |
| TLAL | 1.9537 |
| PYKY | 4.8733 |
| PIGI | 31.281 |
| PWKL | 9.9628 |
| PWHI | 10.946 |
| ARNL | 24.6947 |
| GYAL | 0.5867 |
| WRAL | 22.4074 |
| PRNT | 2.5391 |
| WYGI | 0.0533 |
| TNWL | 15.348 |
| GYHL | 0.0815 |
| ARLL | 1.104 |
| GLYL | 0.0762 |
| PSAM | 32.7825 |
| VYLL | 1.2276 |
| PYAM | 28.0901 |
| YLHL | 0.4077 |
| PFKY | 2.0624 |

| Substance | avg_RP |
| --- | --- |
| PLML | 25.0435 |
| MSHL | 24.6165 |
| VWNL | 14.4124 |
| PLSY | 31.2477 |
| PRNI | 31.9621 |
| PWAL | 31.9211 |
| SANL | 23.7816 |
| SWGL | 0.1389 |
| HAWM | 17.1047 |
| VRYL | 18.3724 |
| GSGL | 1.9698 |
| PVNL | 34.508 |
| PFML | 19.624 |
| PYKL | 15.5683 |
| YHHL | 0 |
| PAQM | 28.6142 |
| HRSL | 7.8508 |
| VRWS | 8.0593 |
| PRFI | 22.3274 |
| WRNL | 6.7583 |
| SGHL | 1.458 |
| PMFL | 18.5721 |
| SLAL | 6.0193 |
| ISAL | 31.8319 |

same assay, conditions: tetramer annotation of MMP-2 cleavage sites in all substrates from MEROPS

| Substance | relative probability (RP) |
| --- | --- |
| AAEL | 15.51 |

same assay, conditions: tetramer annotation of MMP-2 cleavage sites in physiologic substrates from MEROPS

| Substance | relative probability (RP) |
| --- | --- |
| FAPG | 0.08 |

same assay, conditions: tetramer clusters unique to the MMP-2 selectome, MMP-2 RP

| Substance | relative_probability |
| --- | --- |
| MAHL [P3-P1' tetramer cluster] | 29.50 |
| LGEL [P3-P1' tetramer cluster] | 29.44 |
| LAAM [P3-P1' tetramer cluster] | 30.68 |
| LASL [P3-P1' tetramer cluster] | 31.20 |
| MNWL [P3-P1' tetramer cluster] | 30.10 |
| MGAL [P3-P1' tetramer cluster] | 31.51 |
| MSNL [P3-P1' tetramer cluster] | 30.28 |
